Reference: patent publication US20090076032A1, “Derivatives of 18Beta-Glycyrrhetinic Acid” (priority 2006, published 2009)
Like-named read-outs stand apart in the source and are kept apart here.

Key:
NHEKa cells = experiment: NHEKa cell viability/proliferation assay, amended plate design (ATP luminescence), example 12; conditions: retinol 500 nM; for luminescence compared to the controls: 2.5 μM inhibitor
Protocol: To obtain a direct comparison of each inhibitor compared with carbenoxolone, the design of the assay was amended, so that each plate contained a range of different inhibitors at the same concentration compared to carbenoxolone. This removed inter-plate variation when comparing inhibitors used at the same concentration.
The medium (200 μl in each well) was replaced after 24 and 72 hours of growth with fresh pre-warmed medium containing retinol (500 nM final concentration) and the indicated inhibitor, consequently the length of treatment was 72 hours.

[1] = molecular target: T1, recombinant human retinol dehydrogenase enzyme 2 (hRoDH-E2) (Homo sapiens, UniProt Q9BPW9); experiment: Spectrometric hRoDH-E2 activity assay (retinal generation at 400 nm); assay type: biochemical; conditions: E. coli RIL (+hRoDH-E2) SS, 15.625-250 μM, 2.5% DMSO, 125 μM retinol
T1 construct: host or cells: E. coli RIL
Protocol: A reaction mix was prepared, consisting of a buffered solution containing excess retinol (10 mM HEPES, 150 mM KCl, 2 mM EDTA, pH 8.0; 0.02% Tween 80; 125 μM retinol). Preliminary experiments concluded that sufficient cofactor was present in the crude enzyme source, therefore, this was not supplemented into the reaction buffer. The enzyme source was provided by the BioCatalysis Centre, University of Exeter, as a crude sonicated supernatant (SS) from harvested E. coli RIL cells transfected with the hRoDH-E2 expression vector. […] The reaction, initiated by the addition of enzyme (accounting for 5% total reaction volume), was monitored at 400 nm to measure the generation of retinal from retinol. The rate of retinal generation was determined as the change in milli-absorbance units per minute (mAbs/min).
Multi-well assay plates (96) were preloaded with DMSO (2.5% final reaction volume), containing inhibitor where required. […] The contents of each well were mixed by aspiration and the plate loaded into a multi-well plate reader set at 37° C. The generation of retinal was monitored at 400 nm over 30 minutes, during which time the reaction reached maximum velocity under uninhibited conditions after 600 seconds and began to decelerate after 1200 seconds in each case tested. […]

[2] = tested on: normal human keratinocytes (NHEKa); assay type: cell-based; conditions: 24 hours
Protocol: The cells used were normal human keratinocytes (NHEKa). All cells were cultured in T75 flasks according to the supplier's guidelines for maintenance of stocks. Frozen stocks of cells that had gone through two passages were seeded into T25 flasks at a seeding density of 2.5×10^3 cells per cm^2. The cells were then left to grow over 5 days with media changes being carried out every two days.
Cell culture treatment media were prepared for all the test compounds at four concentrations, namely 1 μM, 2.5 μM, 5 μM and 10 μM (final concentration). Control treatments on cells of normal media (no treatment) and DMSO were also carried out.
All treatment media were sterilised by filtration and added to the T25 flasks after removal of spent media. The cells were then incubated at 37° C. for 24 hours. The treatment media were removed from the T25 flasks and the cells washed with 5 ml of PBS before 1 ml of Trypsin/EDTA (TE) (Cascade, Mansfield, UK) solution was added to the flaks and left for approximately 8-10 minutes for the cells to lift off the growth surface. The trypsin was neutralised with 3 ml Trypsin Neutraliser (TN) (Cascade). The cells were then harvested and transferred to a separate 15 ml centrifuge tube for each treatment regime. The cells were spun at 180×g for 7 minutes and the medium was removed.
The cells were resuspended in 1 ml of ice cold PBS before being transferred to a microcentrifuge tube and spun at 200×g for 2 minutes. The PBS was removed and the cells were resuspended in 100 μl of binding buffer (10 mM Hepes, 140 mM NaCl, 2.5 mM CaCl2, pH 7.4) before the addition of 5 μl of a propidium iodide (PI) staining solution (BD Biosciences, Cowley, UK). The cells were incubated at 20° C. for 5 minutes before the addition of 300 μl of binding buffer followed by immediate analysis by flow cytometry. Cells taking up the PI stain were dead, cells not staining with PI were viable. The level of staining within the cells could be viewed by flow cytometry.
This type of analysis takes account of the natural variability in the growth and survival of different batches of cells. Data presented are from three repeats +SEM.

[3] = tested on: Normal human keratinocyte (NHEKa) cells; experiment: NHEKa cell proliferation assay (ATP levels, CellTitre-Glo), example 11; assay type: cell-based
Protocol: Normal human keratinocyte (NHEKa) cells were cultured in the presence and absence of set concentrations of the five 18β-glycyrrhetinic acid derivatives, in multi-well assay plates (96), over a five-day period. The cells, seeded at a density of 5,000 or 2,500 cells per well, were cultured in keratinocyte growth medium (KGM) (Cascade Biologics), to which retinol and various concentrations of the 18β-glycyrrhetinic acid derivatives dissolved in KGM and DMSO were added. Control treatments included KGM only, KGM and retinol, and KGM and DMSO.
After the five-day period, cell proliferation was determined by assay of ATP levels (directly associated with cell density) using a commercially available kit (CellTitre-Glo, Promega). In the presence of suitable controls, reduced proliferation (cell growth measured by ATP generation) indicates an anti-proliferative effect of a given 18β-glycyrrhetinic acid derivative.

[4] = all four concentrations (1, 2.5, 5 and 10 μM)

T1 sequence (Q9BPW9 18-319): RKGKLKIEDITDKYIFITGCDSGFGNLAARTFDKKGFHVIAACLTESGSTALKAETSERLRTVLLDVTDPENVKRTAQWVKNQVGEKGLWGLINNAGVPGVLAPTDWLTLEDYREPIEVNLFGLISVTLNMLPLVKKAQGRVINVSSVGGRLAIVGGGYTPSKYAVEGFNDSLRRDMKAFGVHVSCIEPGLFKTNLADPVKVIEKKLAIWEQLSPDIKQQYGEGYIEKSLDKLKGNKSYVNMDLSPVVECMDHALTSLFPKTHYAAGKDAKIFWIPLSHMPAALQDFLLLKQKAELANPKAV

| Compound | luminescence compared to the controls (NHEKa cells) | viability of NHEKa cells (proportion of viable cells referenced to DMSO) [2, 4] | also measured |
| --- | --- | --- | --- |
| CC1(C)[C@@H](OC(=O)CCC(=O)O)CC[C@]2(C)[C@H]3C(=O)C=C4[C@@H]5C[C@@](C)(C(=O)O)CC[C@]5(C)CC[C@@]4(C)[C@]3(C)CC[C@@H]12 [carbenoxolone, reference compound] | significantly less luminescence |  | luminescence detected compared to the untreated control (NHEKa cells; 5.0 μM inhibitor): 41%; inhibition of recombinant hRoDH-E2 activity (generation of retinal from retinol) [1]: reduce the generation of retinal from retinol; viability of NHEKa cells (proportion of viable cells referenced to DMSO) ([2]; 1 μM and 2.5 μM): slight decrease in viability |
| CC1(C)[C@@H](OC(=O)C2=C(C(=O)O)CCC2)CC[C@]2(C)[C@H]3C(=O)C=C4[C@@H]5C[C@@](C)(C(=O)O)CC[C@]5(C)CC[C@@]4(C)[C@]3(C)CC[C@@H]12 [YP026, Cyclopent-1-ene-1,2-dicarboxylic acid mono-((3S,4aR,6aR,6bS,8aS,11S,12aR, 14aR,14bS)-11-carboxy-4,4,6a,6b,8a,11,14b-heptamethyl-14-oxo-1,2,3,4,4a,5,6,6a,6b,7,8,8a,9,10,11,12,12a,14,14a, 14b-icosahydro-picen-3-yl) ester] | significantly less luminescence | slight increase in viability |  |
| CC(C)(CC(=O)O[C@H]1CC[C@]2(C)[C@H]3C(=O)C=C4[C@@H]5C[C@@](C)(C(=O)O)CC[C@]5(C)CC[C@@]4(C)[C@]3(C)CC[C@H]2C1(C)C)C(=O)O [YP022, 2,2-Dimethyl-succinic acid 4-((3S,4aR,6aR,6bS,8aS,11S,12aR,14aR,14bS)-11-carboxy-4,4,6a,6b,8a,11,14b-heptamethyl-14-oxo-1,2,3,4,4a,5,6,6a,6b,7,8,8a,9,10,11,12, 12a,14,14a, 14b-icosahydro-picen-3-yl) ester] | significantly less luminescence |  |  |
| CC1(C)[C@@H](OC(=O)CCC(=O)O)CC[C@]2(C)[C@H]3C(=O)C=C4[C@@H]5C[C@@](C)(C(=O)O)CC[C@]5(C)CC[C@@]4(C)[C@]3(C)CC[C@@H]12 [carbenoxolone sodium, reference compound] |  |  | effect on NHEKa cell proliferation (ATP levels compared to the controls) ([3]; five-day culture, with retinol, various concentrations): suppresses NHEKa cell proliferation |
| CC1(C)[C@@H](OC(=O)[C@@H]2CCCC[C@@H]2C(=O)O)CC[C@]2(C)[C@H]3C(=O)C=C4[C@@H]5C[C@@](C)(C(=O)O)CC[C@]5(C)CC[C@@]4(C)[C@]3(C)CC[C@@H]12 (mixture of isomers) [YP024, cis-Cyclohexane-1,2-dicarboxylic acid mono-((3S,4aR,6aR,6bS,8aS,11S, 12aR,14aR,14bS)-11-carboxy-4,4,6a,6b,8a,11,14b-heptamethyl-14-oxo-1,2,3,4,4a,5,6,6a,6b, 7,8,8a,9,10,11,12, 12a, 14, 14a, 14b-icosahydro-picen-3-yl) ester] |  | slight increase in viability |  |
| CC(=O)CC(=O)OC1CCC2(C)C(CCC3(C)C2C(=O)C=C2C4CC(C)(C(=O)O)CCC4(C)CCC23C)C1(C)C (stereo not shown) [YP016, 2,4a,6a,6b,9,9,12a-Heptamethyl-13-oxo-10-(3-oxo-butyryloxy)-1,2,3,4,4a,5,6,6a,6b, 7,8,8a,9,10,11,12, 12a,12b,13,14b-icosahydro-picene-2-carboxylic acid] |  | no decrease in viability |  |
| trans-Cyclohexane-1,2-dicarboxylic acid mono-((3S,4aR,6aR,6bS,8aS,11S, 12aR,14aR,14bS)-11-carboxy-4,4,6a,6b,8a,11,14b-heptamethyl-14-oxo-1,2,3,4,4a,5,6,6a,6b, 7,8,8a,9,10,11,12,12a,14,14a, 14b-icosahydro-picen-3-yl) ester [YP023] |  | slight increase in viability |  |
| COC(=O)[C@@]1(C)CC[C@]2(C)CCC3(C)C(=CC(=O)C4[C@@]5(C)CC[C@H](OC(=O)c6ccccc6C(=O)O)C(C)(C)C5CC[C@]43C)[C@@H]2C1 (stereo in doubt) [YP015, Phthalic acid mono-(11-methoxycarbonyl-4,4,6a,6b,8a,11,14b-heptamethyl-14-oxo-1,2,3,4,4a,5,6,6a,6b,7,8,8a,9, 10,11,12,12a, 14,14a, 14b-icosahydro-picen-3-yl) ester] |  | no decrease in viability | anti-proliferative properties compared with carbenoxolone sodium ([3]; at equal concentrations): more potent |
